Test results published in publication PMC11191317, “PNSC928, a plant-derived compound, specifically disrupts CtBP2-p300 interaction and reduces inflammation in mice with acute respiratory distress syndrome” (Biology Direct, 2024).

Tests used:
[1] = target: T1, CtBP2-p300^BRD interaction (Mus musculus, UniProt B2RWS6+P56546); test: AlphaScreen of GST-p300^BRD and His-CtBP2 interaction; assay type: binding
T1 construct: R1 (1-1000 amino acids, aa), R2 (1001–1201 aa), R3 (1202–1810 aa); made in house; host or cells: E. coli BL21
Description: Plasmids pGEX-6P-1-p300^BRD and pET-28a-CtBP2 (Table S2) were transformed into BL21 competent cells. Upon 1 mM isopropyl β-d-1-thiogalactopyranoside (IPTG) induction, GST-p300BRD and His-CtBP2 proteins were isolated via Glutathione Agarose Beads (Thermo Fisher; #16,100) and Ni-NTA Agarose (Thermo Fisher; #R90115), respectively. A comprehensive small molecule library of 4313 compounds derived from various botanical sources, including Lonicera japonica, Forsythia suspense, Houttuynia cordata, Coptis chinensis, Phellodendron, Pulsatilla chinensis, Lygodium japonicum, Plantago asiatica, and Portulaca olerace, was analyzed through mass spectrometry. […] Post addition of 5 µM from each botanical molecule and a 2-hour incubation at 25 °C, the resultant AlphaScreen signals from 96-well plates (PerkinElmer, #6,008,350) were deciphered with an Envision Multilabel Reader (PerkinElmer, #2105-0010).
To probe this interaction, we established an AlphaScreen system that utilized GST-p300^BRD and His-CtBP2, binding to donor and acceptor beads, respectively (Fig. 4C). […] In vitro assays assessed the effects of PNSC928 on the CtBP2-p300^BRD interaction. […] Furthermore, we assessed the impact of combined LPS and PNSC928 treatment on the expression of key molecules in the NF-κB signaling pathway.

[2] = tested on: RAW264.7 cells; test: RT-qPCR of CtBP2/p300/NF-κB target genes in LPS-treated RAW264.7 cells (PNSC928); assay type: cell-based, mouse; settings: LPS + PNSC928 23.6 and 47.2 µM, 6 h
Description: For LPS treatment, different knockdown (KD) cell lines—Control^KD, CtBP2^KD, p300^KD, and p65^KD, all derived from MPAEpiC—were seeded in 12-well plates and cultured at 37 °C until reaching 80% confluence. The cells were then treated with 200 ng/mL of LPS for 6 h, washed three times with PBS, and subjected to the required experiments. For experiments involving inhibitors of CtBP2, p300, and NF-κB, as well as the compound PNSC928, MPAEpiC, RAW264.7, FL83B, TKPTS, and HL-1 cells were seeded in 12-well plates and cultured at 37 °C to reach 80% confluence. […]
RNA was isolated from both cultured cells and mouse lung tissues utilizing the TRIzol Reagent (Invitrogen; Shanghai, China; #15,596,018) in adherence to the manufacturer’s protocol. […] Gene expression quantification was carried out using the SYBR GreenER qPCR SuperMix Universal (Thermo Fisher; #1176202K) in combination with the specific primers delineated in Table S3. […]
Fig. 5 Determination of PNSC928 cytotoxicity and evaluation of PNSC928 effects on the expression levels of CtBP2/p300/NF-κB target genes. […] Cell viability was assessed every 24 h for 5 days. […] Subsequently, RNA isolation and RT-qPCR analysis were performed to quantify mRNA levels of various genes. […]

T1 sequence (B2RWS6 1001-1201 limits assumed): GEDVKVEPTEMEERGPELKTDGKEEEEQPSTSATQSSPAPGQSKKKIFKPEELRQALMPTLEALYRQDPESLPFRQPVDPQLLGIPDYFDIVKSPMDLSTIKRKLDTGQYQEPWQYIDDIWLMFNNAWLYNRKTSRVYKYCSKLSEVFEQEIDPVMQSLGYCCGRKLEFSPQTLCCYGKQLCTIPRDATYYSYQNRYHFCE
T1 sequence (P56546 whole entry, the tested form may be a part): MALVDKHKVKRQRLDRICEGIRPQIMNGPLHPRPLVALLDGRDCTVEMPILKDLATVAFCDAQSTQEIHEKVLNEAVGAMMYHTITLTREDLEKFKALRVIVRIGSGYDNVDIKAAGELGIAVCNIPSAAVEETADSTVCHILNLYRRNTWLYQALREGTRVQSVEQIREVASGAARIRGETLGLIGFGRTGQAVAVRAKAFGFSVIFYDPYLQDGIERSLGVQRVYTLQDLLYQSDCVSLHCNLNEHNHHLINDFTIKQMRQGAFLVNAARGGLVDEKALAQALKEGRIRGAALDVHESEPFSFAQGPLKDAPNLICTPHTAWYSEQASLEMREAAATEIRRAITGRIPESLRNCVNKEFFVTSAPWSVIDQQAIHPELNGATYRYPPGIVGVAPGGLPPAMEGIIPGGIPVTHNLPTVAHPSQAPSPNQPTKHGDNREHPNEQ

CC(=CCCC1=CCC(C2COC(=O)C2)OC1O)CCC1=C(C)CCCC1(C)C (stereo not shown) [PNSC928]
Alpha signal ([1]; high-throughput screening, 5 µM compound, signal reduced from 17,500): 489
IC50 ([1]; read-out: IC50 disrupting CtBP2-p300^BRD interaction): 23.6 ± 3.1 µM
Expression levels of CDH1, CDKN1A, CDKN2A, CHRD, PAX6, BAX, NOD2, CCL2, CXCL10, CXCL12, MMP1, STAT1, MIP2, CCR5, GM-CSF, VEGF, COX2, and iNOS [2]: did not alter the expression levels
LPS-induced IL-1B, IL-6, IL-15, IL-18, TNFA, and IFNG expressions [2]: dose-dependent reversal
